Assay results from US20090098596A1, “PHOTOSTABLE FRET-COMPETENT BIARSENICAL-TETRACYSTEINE PROBES BASED ON FLUORINATED FLUORESCEINS” (priority 2006, published 2009).
Read-outs that look alike come from different tables or passages of the source.

Key:
[1] = system: model target peptide P12 (FLNCCPGCCMEP); test: In vitro labeling of model peptide P12; absorption and emission spectra of biarsenical-P12 complexes; format: physicochemical
Experimental: (§1) Absorption and fluorescence spectra were measured with a UVIKON 943 Double Beam UV/Vis absorption spectrophotometer and with a Perkin Elmer LS50B fluorescence spectrophotometer, respectively. Lifetime measurements were made by TCSPC in a Horiba Jobin Yvon IBH Fluorescence Lifetime Spectrometer System. The excitation source at 495 nm was a NanoLED N-01 Aqua and the detection module was TBX-04-A. Irradiation was carried out using a Superlite SUV-DC-P system incorporating a 200W DC Super-Pressure short arc lamp coupled to a light guide for high UV transmission and an electronic timer for exposure time control (Lumatec GmbH,
To a solution of the biarsenical compound in buffer HEPES 20 mM, 1 mM 2-ME, pH 7.4, at a concentration of 0.1 μM and with a slight excess of EDT, was added the model target peptide P12 ([…]) to a final concentration of 1 μM from a stock solution in the same buffer and treated with 10 mM TCEP to reduce any disulfide bond. Emission spectra were taken after two hours of formation of the complex. FIG. 4 depicts the emision spectra of the F2F1AsH, F4F1AsH and F1AsH at equal concentration, with excitation at 490 nm. A 4-fold enhanced fluorescence emission of F2F1AsH compared to F1AsH can be observed.

[2] = Fluorescence lifetimes by TCSPC; format: physicochemical; details: for t (fluorescence lifetime), P12-Complex: TCSPC; for t (fluorescence lifetime), parent fluorophore: 20 mM buffer HEPES, pH 7.4
Experimental: as §1
The fluorescence lifetimes of the complexes obtained as described in section 3.1, were determined by TCSPC. The corresponding values for each parent fluorescein were also determined in 20 mM buffer HEPES, pH 7.4 for comparison.

[3] = Photostability (photobleaching under mercury arc lamp irradiation); format: physicochemical; details: complexes with P12
Experimental: FIG. 2 illustrates a graph illustrations photobleaching of F2F1AsH-P12 (◯), F4F1AsH-P12 (□) and F1AsH-P12 (+). Full lines correspond to exponential fits. Complexes of the three dyes (10 μM) were irradiated with a mercury arc lamp through a 490-560 nm filter with an irradiance of 70 mW/cm^2;
as §1
Samples containing 10 μM of the biarsenical compounds and 10 μM of the model peptide P12, were incubated at room temperature for 1 h. Each solution of the F1AsH-peptide complex was irradiated for 120 min as previously described (see General Procedures).
Values of κbl were calculated from the monoexponential fitting of the experimental photobleaching decay, according to the model described in (Eq. 1) for the intermediate irradieation regime.^13
where τ(s) is the lifetime, Ψ is the irradiance (photons cm^−2 s^−1) and σ is the molecular absorption cross-section (cm^2 molecules^−1). Inasmuch as a broad excitation bandwidth was used, σ was computed as a mean value over the spectral distribution function of photon flux and corrected by the spectral integral with the corresponding absorption spectra, including the irradiation source and filter.

[4] = Critical Förster distances of donor-acceptor combinations; format: physicochemical
From the text: F2F1AsH and F4F1AsH have a very favorable spectral overlap, leading to a large J (the overlap integral) and thus an R0 of 5.4 nm, greater than any of the values obtained with the other combinations of donors and acceptors based on biarsenical dyes. For example the F1ASH-ReAsH pair has an R0 of 3.9 nm. Thus, the new F2F1AsH-F4F1AsH probes constitute a new donor acceptor pair extending the dynamic range for heteroFRET in studies of living cells by 40%. They also provide new possibilities in combination with other FRET donors and acceptors within and outside the biarsenical family.

[5] = approximate value from ref 8; cited from earlier work

Compound | t (fluorescence lifetime), P12-Complex [2] [ns] | wavelength of fluorescence maximum [3] [nm] | 10^13 · J (overlap integral) ([4]; acceptor F4FlAsH) | Ro ([4]; acceptor F4FlAsH) [nm] | 10^14 · J (overlap integral) ([4]; acceptor ReAsH) | Ro ([4]; acceptor ReAsH) [nm] | t (fluorescence lifetime), parent fluorophore [2] [ns] | further results
O=C1OC2(c3ccccc31)c1cc(F)c(O)c([As]3SCCS3)c1Oc1c2cc(F)c(O)c1[As]1SCCS1 [F2FlAsH, 4′,5′-Bis(1,2,3-dithioarsolan-2-yl)-2′,7′-difluorofluorescein] | 4.78 | 516 | 1.58 | 5.4 | 3.44 | 4.1 | – | shift of absorption maximum to the blue compared to FlAsH [1]: 11 nm; emission quantum yield relative to FlAsH complex ([1]; P12 complex): 2 ×; extinction coefficient at 490 nm relative to FlAsH complex ([1]; P12 complex): 2 ×; fluorescence intensity relative to complex with parent FlAsH ([1]; P12 complex, λexc 490 nm, λem 525 nm): 4 fold; λem ([1]; biarsenical-P12 complex): 522 nm; Stokes shift ([1]; complex with P12): 22 nm; Stokes shift, greater than that of the FlAsH complex by ([1]; complex with P12): 7 nm; 10^13 · J (overlap integral) ([4]; acceptor F2FlAsH): 1.37; Ro ([4]; acceptor F2FlAsH): 5.2 nm; 10^14 · J (overlap integral) ([4]; acceptor FlAsH): 6.41; Ro ([4]; acceptor FlAsH): 4.1 nm
O=C1OC2(c3ccccc31)c1ccc(O)c([As]3SCCS3)c1Oc1c2ccc(O)c1[As]1SCCS1 [FlAsH, 4′,5′-Bis(1,2,3-dithioarsolan-2-yl)-fluorescein, reference compound] | 4.88 | 519.5 | 1.48 | 4.7 | 5.03 | 3.9 | – | τ (fluorescence lifetime) ([2]; biarsenical-P12 complex): 4.88 ns; Φd, emission quantum yield of donor [5]: ~0.4
O=C1OC2(c3cc(F)c(O)cc3Oc3cc(O)c(F)cc32)c2ccccc21 [2′,7′-difluorofluorescein] | – | – | – | – | – | – | 4.02 | –
O=C1OC2(c3ccc(O)c([As]4SCCS4)c3Oc3c2ccc(O)c3[As]2SCCS2)c2c(F)c(F)c(F)c(F)c21 [F4FlAsH, 4′,5′-Bis(1,2,3-dithioarsolan-2-yl)-3,4,5,6-tetrafluorofluorescein] | 5.18 | 538 | 1.17 | 4.5 | 6.45 | 4.1 | – | displacement of absorption maximum to the red compared to FlAsH [1]: 17 mn; Φd, emission quantum yield of donor [4]: 0.4
O=C1OC2(c3ccc(O)cc3Oc3cc(O)ccc32)c2c(F)c(F)c(F)c(F)c21 [3,4,5,6-tetrafluorofluorescein] | – | – | – | – | – | – | 4.13 | –
